Laboratory results as given in US20250302967A1, “PEPTIDE FORMULATIONS AND USES THEREOF” (Amytrx Therapeutics, Inc., priority 2022, published 2025).
Positions of bridges follow the written chain, without caps; N, C: chain ends. Residues, ends and D or L forms follow the SMILES beside them.

Key:
[1] = tested on: mild to moderate atopic dermatitis; assay type: in vivo, human
Experimental: 26 subjects having mild to moderate atopic dermatitis and about 3-70% treatable body surface area (BSA) were enrolled in the study. […] Dosing was targeted at 0.62 g/kg/day of the formulation or 6.82 mg/kg/day of Compound 1. Based on an average body weight of 60 kg, and average BSA of 1.62 m2, a recommended starting dose of 2.5 g of a formulation (for example, Formulation 1 or 4; Formulations 2, 3, 5, and 6 may be dosed higher due to the lower concentration of Compound 1) is proposed as a starting point. Severity of atopic dermatitis (vIGA-AD score), treatable BSA, and the following 11 signs and symptoms were assessed: dryness, erythema, burning/stinging, erosion/ulceration, edema/swelling, itching, pain treated area, crusting, vesiculation, flaking/scaling, and bleeding.

[2] = tested on: Phorbol Myristoyl Acetate (PMA)-induced skin inflammation; assay type: in vivo; settings: mouse
From the text: The anti-inflammatory efficacy of Compound 1 on a Phorbol Myristoyl Acetate (PMA)-induced skin inflammatory mouse model (irritant contact dermatitis) is shown following topical application of a formulation including Compound 1 herein.

[3] = 7-day repeat dose tolerance dermal study in Gottingen Mini-Pigs (non-GLP); assay type: in vivo
From the text: The purpose of this study was to evaluate the dermal dose tolerance at the maximum feasible dose (concentration and application rate) of Compound 1 in Formulation 1, Formulation 2, or Formulation 3 of Table 2, including placebo (F1, F2, or F3 without Compound 1) when applied by topical dermal application to Gottingen Mini-Pigs twice daily for seven days.
Three experimentally naive male Gottingen Mini-Pigs, 4-5 months old and weighing 10.6-13.8 kilograms at the outset of the study had four dose sites (100 cm^2 per site) numbered 1, 2, 3, and 4. The dose sites were not rotated.
Animals were dosed with all formulations twice daily (two doses per site per day; 6 hours+/−30 minutes between the first and second dose for 7 days). Mortality/morbidity was performed twice daily and once on the day of scheduled euthanasia. On Days 1-7 animals were observed prior to dosing and at 1-2 hours post-dose. A final observation was recorded on Day 8 prior to scheduled euthanasia. Body weights were recorded on Days 1 and 7. Food consumption was determined daily. Blood for toxicokinetic evaluation was collected on Days 1 and 7 at 0.5, 1, 2, 4, 6, 8 and 24 hours post-dose. […] Animals were sacrificed on Day 8 and a gross necropsy was performed. The dosing area (skin) was collected and preserved.

[4] = PK/biodistribution following single topical dose: whole blood and plasma radioactivity; assay type: in vivo, male albino rats; set-up: Non-plasma compartment: unit not given beside the values; settings: rat; for Concentration of radioactivity in recovered white blood cells: reverse wash of filters
Experimental: Whole blood and plasma radioactivity analysis, quantitative whole-body autoradiography (QWBA), and micro-autoradiography (mARG) studies are performed following a single topical dose administration to male rats. Formulation 1, Formulation 2, or Formulation 3, where Compound 1 is 3H-Compound 1, are applied in a single topical dose at a target dose of 5 mg/kg to six male albino rats.
An additional three male albino rats received a single topical appropriate amount of CETAPHIL (R) applied to the dose site approximately 1 hour prior to application of ^3H-Compound 1 in a single topical dose at a target dose of 5 mg/kg. An individual rat receiving the emollient pre-treatment was used for a single time-point of 2 hours, 8 hours, and 48 hours.

[5] = at EOT or at 2-week follow-up visit
[6] = CETAPHIL 1 hr prior to single topical 5 mg/kg, 48 h, dosing device removed by rat, potential oral administration by grooming
[7] = CETAPHIL 1 hr prior to single topical 5 mg/kg, 48 h, dosing device removed, potential oral administration
[8] = CETAPHIL emollient 1 hr prior to single topical 5 mg/kg, 2 h
[9] = CETAPHIL emollient 1 hr prior to single topical 5 mg/kg, 8 h
[10] = single topical 5 mg/kg, without CETAPHIL, 1 h
[11] = single topical 5 mg/kg, without CETAPHIL, 1 h post-dose
[12] = single topical 5 mg/kg, without CETAPHIL, 2 h
[13] = single topical 5 mg/kg, without CETAPHIL, 2 h post-dose
[14] = single topical 5 mg/kg, without CETAPHIL, 4 h
[15] = single topical 5 mg/kg, without CETAPHIL, 4 h post-dose
[16] = single topical 5 mg/kg, without CETAPHIL, 8 h
[17] = single topical 5 mg/kg, without CETAPHIL, 8 h post-dose
[18] = single topical 5 mg/kg, without CETAPHIL, 24 h
[19] = single topical 5 mg/kg, without CETAPHIL, 24 h post-dose
[20] = single topical 5 mg/kg, without CETAPHIL, 48 h
[21] = single topical 5 mg/kg, without CETAPHIL, 48 h post-dose

Compound: CSCC[C@@H]1NC(=O)[C@H](CC(C)C)NC(=O)[C@H](CCCCN)NC(=O)[C@H](CCC(N)=O)NC(=O)[C@H](CCCNC(=N)N)NC(=O)[C@H](CCCCN)NC(=O)[C@H](CCCNC(=N)N)NC(=O)[C@H](CCC(N)=O)NC(=O)[C@H](C(C)C)NC(=O)[C@@H](NC(=O)[C@@H]2CCCN2C(=O)[C@H](C)NC(=O)[C@H](CC(C)C)NC(=O)[C@H](CC(C)C)NC(=O)[C@H](C)NC(=O)[C@H](CC(C)C)NC(=O)[C@H](CC(C)C)NC(=O)[C@@H](NC(=O)[C@H](C)NC(=O)[C@@H]2CCCN2C(=O)[C@H](CC(C)C)NC(=O)[C@H](CC(C)C)NC(=O)[C@H](C)NC(=O)[C@@H](NC(=O)[C@H](C)NC(=O)[C@H](C)N)C(C)C)C(C)C)CSSC[C@@H](C(=O)O)NC(=O)[C@@H]2CCCN2C1=O [Compound 1] (H-AAVALLPAVLLALLAPCVQRKRQKLMPC-OH; disulfide 17-28)
- 11 signs and symptoms of AD scored from patient diaries ([1]; 1.1% as Formulation 4, BID for 7 days): net negative score
- subjects whose vIGA-AD score worsened 2 units ([1]; at 2-week follow up): 0 subjects
- subjects whose EOT vIGA-AD score worsened 1 unit ([1]; at 2-week follow up (3 subjects)): 13%
- subjects with improvement in vIGA-AD scores of 2 units ([1]; at 2-week follow up (10 subjects)): 44%
- subjects with 0-clear or 1-almost clear skin ([1]; at 2-week post treatment): 61%
- subjects with improved vIGA-AD scores of 2 units ([1]; at EOT (6 subjects)): 26%
- subjects with 0-clear or 1-almost clear vIGA-AD scores ([1]; at EOT (BID for 7 days)): 57%
- patients responding (reduction in treatable BSA or decrease in vIGA-AD severity score, or both) [1, 5]: 24 of 26
- reduction in size of treatable BSA in responders [1, 5]: 20-100%
- adverse events (AEs) ([1]; in vivo): no adverse events
- tolerability ([1]; in vivo): well tolerated
- swelling and cellular infiltration in ear punch biopsies induced by PMA ([2]; 8 h post-challenge): reduced
- skin wound healing and hair re-growth after repeated surgical trauma ([2]; in vivo): does not impede
- inflammatory cell infiltration in skin biopsies in response to PMA ([2]; topical formulation, dose-dependent treatment): reduced
- ear swelling (ear thickness of intact ears) induced by PMA ([2]; topical treatment): attenuated
- dermal tolerance ([3]; male mini-pigs, 0, 0.11, 0.33, 1.1% w/w applied topically twice daily for 7 consecutive days): tolerated
- no-observed-adverse-effect level (NOAEL) ([3]; male mini-pigs, highest dose tested: 0.75 grams of formulation applied twice daily for 7 days): 1.1 % w/w
- early deaths (mortality) ([3]; male mini-pigs, topical 0.11, 0.33, 1.1% w/w (F3, F2, F1), 0.75 g per site twice daily for 7 days): no early deaths
- clinical signs or dermal effects ([3]; male mini-pigs, topical 0.11, 0.33, 1.1% w/w, twice daily for 7 days): no clinical signs or dermal effects noted
- dermal irritation ([3]; minipig, in vivo): no signs of dermal irritation
- general signs of toxicity ([3]; minipig, in vivo): no general signs of toxicity

Compound: CSCC[C@@H]1NC(=O)[C@H](CC(C)C)NC(=O)[C@H](CCCCN)NC(=O)[C@H](CCC(N)=O)NC(=O)[C@H](CCCNC(=N)N)NC(=O)[C@H](CCCCN)NC(=O)[C@H](CCCNC(=N)N)NC(=O)[C@H](CCC(N)=O)NC(=O)[C@H](C(C)C)NC(=O)[C@@H](NC(=O)[C@@H]2CCCN2C(=O)[C@H](C)NC(=O)[C@H](CC(C)C)NC(=O)[C@H](CC(C)C)NC(=O)[C@H](C)NC(=O)[C@H](CC(C)C)NC(=O)[C@H](CC(C)C)NC(=O)[C@@H](NC(=O)[C@H](C)NC(=O)[C@@H]2CCCN2C(=O)[C@H](CC(C)C)NC(=O)[C@H](CC(C)C)NC(=O)[C@H](C)NC(=O)[C@@H](NC(=O)[C@H](C)NC(=O)[C@H](C)N)C(C)C)C(C)C)CSSC[C@@H](C(=O)O)NC(=O)[C@@H]2CCCN2C1=O [^3H-Compound 1] (H-AAVALLPAVLLALLAPCVQRKRQKLMPC-OH; disulfide 17-28)
- Cmax, total radioactivity ([4]; Plasma, single topical 5 mg/kg): 14.53 ng/mL
- Cmax, total radioactivity ([4]; Whole blood -WBC, single topical 5 mg/kg): 11.68 ng/mL
- Cmax, total radioactivity ([4]; Whole blood, single topical 5 mg/kg): 2.282 ng/mL
- Blood [4, 6]: 1630 ng/mL
- Plasma [4, 6]: 2312 ng/mL
- Non-plasma compartment [4, 7]: 19.2
- Partition coefficient [4, 7]: 80.8
- WBC depleted blood [4, 7]: 303.9 ng equivalents/mL
- Blood [4, 8]: 4.444 ng/mL
- Non-plasma compartment [4, 8]: 26.5
- Partition coefficient [4, 8]: 73.5
- Plasma [4, 8]: 5.443 ng/mL
- WBC depleted blood [4, 8]: 2.333 ng equivalents/mL
- Blood [4, 9]: 16.05 ng/mL
- Non-plasma compartment [4, 9]: 21.3
- Partition coefficient [4, 9]: 78.7
- Plasma [4, 9]: 21.04 ng/mL
- WBC depleted blood [4, 9]: 3.223 ng equivalents/mL
- persistence in the blood ([4]; after a single topical administration): > 48 h
- time to penetrate the skin deep enough to reach blood vessels ([4]; cream formulation, single topical administration): less than one hour
- Concentration of radioactivity in recovered white blood cells ([4]; single topical 5 mg/kg, 1 h post-dose, may not represent total white blood cells): BLQ
- Concentration of radioactivity in recovered white blood cells ([4]; single topical 5 mg/kg, 2 h post-dose): BLQ
- Concentration of radioactivity in recovered white blood cells ([4]; single topical 5 mg/kg, 4 h post-dose): BLQ
- Concentration of radioactivity in recovered white blood cells ([4]; single topical 5 mg/kg, 8 h post-dose): BLQ
- Concentration of radioactivity in recovered white blood cells ([4]; single topical 5 mg/kg, 24 h post-dose): BLQ
- Concentration of radioactivity in recovered white blood cells ([4]; single topical 5 mg/kg, 48 h post-dose): BLQ
- Non-plasma compartment [4, 10]: 43.1
- Partition coefficient [4, 10]: 56.9
- Concentration of radioactivity in WBC depleted blood [4, 11]: BLQ
- Concentration of radioactivity in plasma [4, 11]: 1.764 ng equivalents/mL
- Concentration of radioactivity in whole blood [4, 11]: 1.923 ng equivalents/mL
- Non-plasma compartment [4, 12]: 24.9
- Partition coefficient [4, 12]: 75.1
- Concentration of radioactivity in WBC depleted blood [4, 13]: BLQ
- Concentration of radioactivity in plasma [4, 13]: 4.818 ng equivalents/mL
- Concentration of radioactivity in whole blood [4, 13]: 3.850 ng equivalents/mL
- Non-plasma compartment [4, 14]: 34.0
- Partition coefficient [4, 14]: 66.0
- Concentration of radioactivity in WBC depleted blood [4, 15]: 0.735 ng equivalents/mL
- Concentration of radioactivity in plasma [4, 15]: 4.896 ng equivalents/mL
- Concentration of radioactivity in whole blood [4, 15]: 4.303 ng equivalents/mL
- Non-plasma compartment [4, 16]: 27.8
- Partition coefficient [4, 16]: 72.2
- Concentration of radioactivity in WBC depleted blood [4, 17]: 2.282 ng equivalents/mL
- Concentration of radioactivity in plasma [4, 17]: 14.53 ng equivalents/mL
- Concentration of radioactivity in whole blood [4, 17]: 11.68 ng equivalents/mL
- Non-plasma compartment [4, 18]: 30.4
- Partition coefficient [4, 18]: 69.6
- Concentration of radioactivity in WBC depleted blood [4, 19]: 1.166 ng equivalents/mL
- Concentration of radioactivity in plasma [4, 19]: 6.709 ng equivalents/mL
- Concentration of radioactivity in whole blood [4, 19]: 5.593 ng equivalents/mL
- Non-plasma compartment [4, 20]: 21.7
- Partition coefficient [4, 20]: 78.3
- Concentration of radioactivity in WBC depleted blood [4, 21]: 1.109 ng equivalents/mL
- Concentration of radioactivity in plasma [4, 21]: 6.287 ng equivalents/mL
- Concentration of radioactivity in whole blood [4, 21]: 4.978 ng equivalents/mL
- partitioning among blood components ([4]; single topical dose, WBCs versus RBCs and RBC/WBC-depleted plasma): partitions to the WBCs (white blood cells) of blood preferentially
